Where “and” joins values, the source holds several entries; their conditions need not be identical. Equal entries are not always repeated. Inconclusive results and toxic doses are left out.
Tested on: BDF1 mice, P388/VCR leukemia ip, median survival T/C
Experiment: NCI In Vivo Anticancer Drug Screen. Data for tumor model P388 Leukemia resistant to Vincristine; NSC 67574 (intraperitoneal) in B6D2F1 (BDF1) mice
Details: endpoint: median survival time, higher = longer survival
Procedure: The antitumor activity of compounds was measured in mice bearing transplantable tumors. Survival or tumor size were measured and the results are expressed as the measurement made in the treated group (T) divided by the measurement made in the vehicle treated control group (C). The tumor model used in this assay is P388 Leukemia resistant to Vincristine; NSC 67574 (intraperitoneal) in B6D2F1 (BDF1) mice

[1] = dose: 30.0 mg/kg/injection, schedule: Q01DX010 (ip), vehicle: saline
[2] = dose: 100.0 mg/kg/injection, schedule: Q01DX010 (ip), vehicle: saline
[3] = dose: 20.0 mg/kg/injection, schedule: Q01DX010 (ip), vehicle: saline

Cc1c2ccncc2c(C)c2c1[nH]c1ccccc12
T/C (dose: 13.0 mg/kg/injection, schedule: Q04DX003 (ip), vehicle: water): 150 % of control
T/C (dose: 21.6 mg/kg/injection, schedule: Q04DX003 (ip), vehicle: water): 210 % of control
T/C (dose: 24.0 mg/kg/injection, schedule: Q04DX003 (ip), vehicle: clinical formulation): 158 % of control
T/C (dose: 36.0 mg/kg/injection, schedule: Q04DX003 (ip), vehicle: water): 253 % of control
T/C (dose: 40.0 mg/kg/injection, schedule: Q04DX003 (ip), vehicle: clinical formulation): 203 % of control
T/C (dose: 60.0 mg/kg/injection, schedule: Q04DX003 (ip), vehicle: water): 93 % of control
T/C (dose: 66.7 mg/kg/injection, schedule: Q04DX003 (ip), vehicle: clinical formulation): 98 % of control

Clc1ncnc2nc[nH]c12
T/C (dose: 7.5 mg/kg/injection, schedule: Q01DX010 (ip), vehicle: saline): 96 % of control and 119 % of control
T/C (dose: 15.0 mg/kg/injection, schedule: Q01DX010 (ip), vehicle: saline): 92 % of control and 107 % of control
T/C [1]: 107 % of control
T/C (dose: 60.0 mg/kg/injection, schedule: Q01DX010 (ip), vehicle: saline): 92 % of control

COc1cc(-c2ccc(Nc3ccccc3C(=O)O)c(OC)c2)ccc1Nc1ccccc1C(=O)O
T/C [2]: 150 % of control

C1CN1c1nc(N2CC2)nc(N2CC2)n1
T/C (dose: 0.13 mg/kg/injection, schedule: Q01DX010 (ip), vehicle: saline): 88 % of control and 108 % of control
T/C (dose: 0.5 mg/kg/injection, schedule: Q01DX010 (ip), vehicle: saline): 152 % of control and 228 % of control

CSc1ncnc2nc[nH]c12
T/C (dose: 25.0 mg/kg/injection, schedule: Q01DX010 (ip), vehicle: saline): 104 % of control and 107 % of control
T/C (dose: 50.0 mg/kg/injection, schedule: Q01DX010 (ip), vehicle: saline): 103 % of control and 116 % of control
T/C [2]: 112 % of control and 115 % of control
T/C (dose: 200.0 mg/kg/injection, schedule: Q01DX010 (ip), vehicle: saline): 111 % of control and 112 % of control

COc1cc2cc3c4cc(OC)c(OC)cc4cc[n+]3c(C)c2cc1OC (tested in a mixture with another compound)
T/C (dose: 46.7 mg/kg/injection, schedule: Q04DX003 (ip), vehicle: alkali diluted with saline): 106 % of control
T/C (dose: 77.8 mg/kg/injection, schedule: Q04DX003 (ip), vehicle: alkali diluted with saline): 110 % of control
T/C (dose: 130.0 mg/kg/injection, schedule: Q04DX003 (ip), vehicle: alkali diluted with saline): 115 % of control
T/C (dose: 216.0 mg/kg/injection, schedule: Q04DX003 (ip), vehicle: alkali diluted with saline): 124 % of control

COc1ccc(CC2C(=O)NC(C)C(=O)N(C)C3Cc4ccc(cc4)Oc4cc(ccc4O)CC(C(=O)NC(C)C(=O)NC(C)C(=O)N2C)N(C)C3=O)cc1 (stereo not given)
T/C (dose: 4.32 mg/kg/injection, schedule: Q04DX003 (ip), vehicle: other): 108 % of control
T/C (dose: 7.2 mg/kg/injection, schedule: Q04DX003 (ip), vehicle: other): 103 % of control

CC(=O)c1cccc(NC2C(N)C(NC(=O)N(C)C)(C(C)O)C(C)(O)C2(O)COC(=O)c2c(C)cccc2O)c1 (stereo not given)
T/C (dose: 5.4 mg/kg/injection, schedule: Q04DX003 (ip), vehicle: alkali diluted with saline): 98 % of control
T/C (dose: 9.0 mg/kg/injection, schedule: Q04DX003 (ip), vehicle: alkali diluted with saline): 98 % of control
T/C (dose: 15.0 mg/kg/injection, schedule: Q04DX003 (ip), vehicle: alkali diluted with saline): 100 % of control

COc1cc([C@@H]2c3cc4c(cc3[C@@H](OC3OC5CO[C@@H](c6cccs6)OC5C(O)C3O)[C@H]3COC(=O)[C@H]23)OCO4)cc(OC)c1O (stereo not given in full)
T/C (dose: 5.4 mg/kg/injection, schedule: Q04DX003 (ip), vehicle: clinical formulation): 153 % of control
T/C (dose: 15.0 mg/kg/injection, schedule: Q04DX003 (ip), vehicle: clinical formulation): 172 % of control

O=C[C@@H](CO)O[C@H](C=O)n1cnc2c(=O)[nH]cnc21
T/C (dose: 180.0 mg/kg/injection, schedule: Q04DX003 (ip), vehicle: water): 210 % of control
T/C (dose: 300.0 mg/kg/injection, schedule: Q04DX003 (ip), vehicle: water): 323 % of control

O=c1[nH]cc(F)c(=O)[nH]1
T/C (dose: 2.5 mg/kg/injection, schedule: Q01DX010 (ip), vehicle: saline): 155 % of control
T/C (dose: 10.0 mg/kg/injection, schedule: Q01DX010 (ip), vehicle: saline): 200 % of control
T/C [3]: 116 % of control and 235 % of control
T/C (dose: 21.6 mg/kg/injection, schedule: Q04DX003 (ip), vehicle: saline): 154 % of control
T/C (dose: 36.0 mg/kg/injection, schedule: Q04DX003 (ip), vehicle: saline): 188 % of control
T/C (dose: 60.0 mg/kg/injection, schedule: Q04DX003 (ip), vehicle: saline): 252 % of control
T/C (dose: 100.0 mg/kg/injection, schedule: Q04DX003 (ip), vehicle: saline): 270 % of control

CN=C(NC)c1ccc(NC(=O)Nc2ccc(NC(=O)Nc3ccc(C(=NC)NC)cc3)cc2)cc1
T/C (dose: 13.3 mg/kg/injection, schedule: Q01DX010 (ip), vehicle: saline): 150 % of control
T/C [3]: 100 % of control
T/C [1]: 504 % of control

CC[C@](O)(C(=O)O)c1cc2n(c(=O)c1CO)Cc1cc3ccccc3nc1-2
T/C (dose: 14.4 mg/kg/injection, schedule: Q04DX003 (ip), vehicle: saline): 155 % of control
T/C (dose: 24.0 mg/kg/injection, schedule: Q04DX003 (ip), vehicle: saline): 180 % of control
T/C (dose: 40.0 mg/kg/injection, schedule: Q04DX003 (ip), vehicle: saline): 102 % of control
T/C (dose: 66.7 mg/kg/injection, schedule: Q04DX003 (ip), vehicle: saline): 161 % of control
